According to patent US8022056B2, “Compositions and methods for the treatment of cancer” (Tautatis, Inc, priority 2006, dated 2011):
Several values for one entry are separate records, joined by “and”; a condition that tells them apart may be missing. Equal values may be shown once.

How the values were obtained:
ERK2 = ERK2 (Homo sapiens, UniProt P28482); test: Kinase inhibition under standard conditions, ERK2; format: biochemical
PKC = test: Kinase inhibition under standard conditions, PKC; format: biochemical
PC-3 xenograft = test: Mouse xenograft model PC-3; format: in vivo; conditions: Prostate, p53/PTEN; oral twice daily dosing
Procedure: The efficacy of the compound of the formula 1 was confirmed in mouse tumor xenograft models, employing the NMRI(nu/nu) strain of mice. For example, cells from the human tumor cell lines MDA-MB-231, U373, and HT29 were pre-incubated subcutaneously in several nude mice to select for the most robustly growing cell population. After having grown to a sufficient size after 2-3 weeks, a piece of about 2 mm^3 volume of the most suitable tumor was transplanted subcutaneously into the region of the thoracic mammary fat pads, an area ensuring a high degree of vascularization of the grafted tissue. […] During the course of the treatment, the weight of the animals and the size of the transplanted tumor was monitored three times a week. […] These doses are best determined separately for each individual mouse strain employed.
To establish a solid tumour 3×10^6 tumor cells suspended in 100 μl of serum free medium (RPMI) were inoculated subcutaneously into the region of the thoracic mammary fat pads of 5 Male NMRI(nu/nu) mice of 8-10 weeks of age. […] During the course of the treatment body weight changes and tumor growth were recorded three times a week. Growth curves were plotted together with standard deviations and the significance of differences was determined using an unpaired t-test in FIG. 11. […]

[1] = system: U373 glioblastoma cell line; test: Long-term growth inhibition, crystal violet staining; format: cell-based, human; conditions: 10 nM, over a week
Procedure: For proliferation assays tumor cell suspensions (100 μl/well) were seeded into 96-well flat bottomed microtitration plates at a density of ca. 15 cells/microscopic field (magnification 320×). After 2-3 days the culture medium was removed by suction and replaced by fresh medium (200 μl/well) containing varying concentrations of the compound of the formula 1 or vehicle (0.5% DMSO). Compound 1 was added as […] concentrated feed solutions. On every plate 16 wells served as controls and 16 wells were used per concentration of 1. After various times of incubation the cells were fixed with glutardialdehyde and stored in a refrigerator. At the end of the assay all plates were processed simultaneously (staining with 0.02% aqueous crystal violet solution (100 μl/well). Excess dye was removed by rinsing the trays with water for 20 min. The stain bound by the cells was redissolved in 70% ethanol (180 μl/well) while shaking the microplates for about 3 hours. Absorbance (proportional to cell mass) was measured at 578 nm using a BIOTEK 309 Autoreader. The results (mean values±standard deviation) were plotted as growth curves.
The EGF-receptor independent U373 Human Glioblastoma cell line (obtained from ATCC, Rockville, USA) was cultured as above. Treatment with the compound of the formula 1 and analysis of growth inhibition was performed analogous to Example 3.

HT29 xenograft = test: Mouse xenograft model HT29; format: in vivo
Procedure: The efficacy of the compound of the formula 1 was confirmed in mouse tumor xenograft models, employing the NMRI(nu/nu) strain of mice. For example, cells from the human tumor cell lines MDA-MB-231, U373, and HT29 were pre-incubated subcutaneously in several nude mice to select for the most robustly growing cell population. After having grown to a sufficient size after 2-3 weeks, a piece of about 2 mm^3 volume of the most suitable tumor was transplanted subcutaneously into the region of the thoracic mammary fat pads, an area ensuring a high degree of vascularization of the grafted tissue. When tumors reached a diameter of about 3 mm mice were assigned to treatment groups with about equal average tumor sizes, and therapy was started. Application of the compound of the formula 1 was performed preferably by oral gavage twice daily for continuous exposure, with doses between 1 and 10 mg/kg of the compound of the formula 1 as a solid suspension in water, or in aqueous liquid formulations containing common adjuvants, like polyethylene glycols (PEG), preferentially in form of a salt with a physiologically applicable acid, including but not limited to hydrochloric acid, phosphoric acid, lactic acid, malonic acid, citric acid, etc. Other suitable adjuvants include but are not limited to polyvinyl pyrrolidone (Povidone) of varying average molecular weights. During the course of the treatment, the weight of the animals and the size of the transplanted tumor was monitored three times a week. For maximum efficacy, a daily treatment regimen was chosen at the maximally applicable dose, as defined by the absence of significant weight loss over the course of the treatment. These doses are best determined separately for each individual mouse strain employed.
To establish a solid tumour 3×10^6 tumor cells suspended in 100 μl of serum free medium (RPMI) were inoculated subcutaneously into the region of the thoracic mammary fat pads of 5 Male NMRI(nu/nu) mice of 8-10 weeks of age. After 3-4 weeks tumor bearing mice were killed by cervical dislocation and the tumor of one selected donor mouse was excised under sterile conditions. Vital tumor regions were cut into 2 mm^3 pieces, picked up by a trocar (13 ga), and transplanted subcutaneously into NMRI(nu/nu) of the same stock. The tumor grade of the transplanted tissue was checked by routine histopathology (HE staining). Tumor growth and body weight were registered weekly during tumor establishment. When subcutaneous tumors reached diameters of about 3 mm the animals were randomly assigned to a treatment and a vehicle control group, each consisting of 10-12 animals, and a therapeutic regimen was started comprising twice daily applications by oral gavage of 2.5 mg/kg of compound 1 in a vehicle of 50 mM (−)-lactic acid in 50% polyethylene glycol 400. During the course of the treatment body weight changes and tumor growth were recorded three times a week. Growth curves were plotted together with standard deviations and the significance of differences was determined using an unpaired t-test in FIG. 11. In untreated mice tumor areas had grown after 9 days by about 150%, while in the treated group average tumor areas had grown only by about 50% (P=0.012).

[2] = Pharmacokinetics in mouse plasma and brain after oral dosing; format: in vivo
Procedure: Standard curves were established for the compound 1 reextracted from serum samples and brain homogenates, using the related compound 2 as internal standard. 200 μl serum samples prepared from mouse or human blood, and homogenates of 0.2 g mouse brain tissue in 0.3 ml saturated NaCl solution, were spiked with a range of concentrations of compound 1 at 10 nM, 30 nM, 100 nM, 300 nM, 1 μM, 3 μM in a mix with 500 nM of compound 2 as internal standard in DMSO (final DMSO not exceeding 2%). Serum and homogenate samples were mixed with 100 μl conc. Ammonia, and 200 μl sat'd NaCl solution was added to the serum samples. […] were reextracted twice with 2 ml ethylacetate each by vigorous vortexing for 1 min. Combined organic extracts were evaporated in a SpeedVac, and residues were taken up in 300 μl of 40% water/60% methanol (0.1% formic acid). Samples were analyzed by reversed phase HPLC on a […] Zorbox 300SB-C8 2.1×150 mm column at 45° C. […]
Mice were dosed at 12.5 mg/kg in a vehicle of 50 mM (−)-lactic acid in 50% PEG400, and sacrificed by cardiac puncture after various time intervals. […] Reextraction was performed, and ratios of analyte 1 and internal standard 2 were determined as described above. The concentrations of compound 1 in the serum and brain samples was calculated from the standard curve.

PKA = test: Kinase inhibition under standard conditions, PKA; format: biochemical
[3] = Colon, Raf/PI3K/p53/APC, 2.5 mg/kg p.o. twice daily, 30 days

Sequence of ERK2 (P28482 whole entry, species assumed): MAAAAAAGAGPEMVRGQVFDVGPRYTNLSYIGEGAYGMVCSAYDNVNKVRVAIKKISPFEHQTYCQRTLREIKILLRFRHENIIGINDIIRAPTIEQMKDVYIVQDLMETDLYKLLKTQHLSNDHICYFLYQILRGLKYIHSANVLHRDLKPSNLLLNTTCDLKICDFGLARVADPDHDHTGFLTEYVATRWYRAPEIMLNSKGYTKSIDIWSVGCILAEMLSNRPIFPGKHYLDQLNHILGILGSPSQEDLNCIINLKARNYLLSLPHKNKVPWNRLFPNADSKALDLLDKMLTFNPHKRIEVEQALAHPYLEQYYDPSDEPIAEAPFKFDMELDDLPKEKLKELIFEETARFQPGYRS

SMILES: CNC(=O)[C@@]1(N)C[C@H]2O[C@]1(C)n1c3ccccc3c3c4c(c5c6ccccc6n2c5c31)C(=O)NC4 [Compound 1]
- IC50 (ERK2): 64 nM
- IC50 (PKC): 1280 nM
- Mean % Inhibition (PC-3 xenograft): 68%
- N tumors with no/neg. growth (PC-3 xenograft): 2 of 11
- growth arrest of U373 cells [1]: almost completely effective
- signs of organ toxicity in heart, lung, kidney, liver, duodenum, and colon (HT29 xenograft; 30 days of continuous treatment, all 11 animals): complete absence of any signs of organ toxicity
- effect on body weight (HT29 xenograft; 30 days, 2.5 mg/kg p.o. twice daily): absence of any significant effect on body weight
- irritation in the mucosal layers of duodenum and colon tissues (HT29 xenograft; 30 days, oral route): absence of any signs of irritation
- Mean % Inhibition (HT29 xenograft; [3]): 70%
- N tumors with no/neg. growth (HT29 xenograft; [3]): 2 out of 10 and 2 of 11
- growth of average tumor areas in treated group (HT29 xenograft; after 9 days, 2.5 mg/kg p.o. twice daily): about 50%
- maximal free plasma concentration sustained over prolonged periods ([2]; in vivo, practical forms of oral dosing): about 200 nM
- penetration of the CNS ([2]; mouse plasma and brain, oral dosing): good penetration of the CNS
- IC50 (PKA): 300 nM
